Paper PMC8484168 (Cancer Chemotherapy and Pharmacology, 2021)
Where two headings read alike, the source gives them in different places.

Columns and labels:
[1] = Plasma PK of rosuvastatin and oral contraceptives with and without rucaparib (phase 1 DDI study, noncompartmental analysis); assay type: in vivo, human; conditions: for detected in human plasma up to (postdose): 30 µg dose, LC–MS/MS; for AUC(0-inf) / AUC(0-t) / Cmax / half-life / Vd/F / Tmax: human; for AUC(0-inf) / AUC(0-t) / Cmax / half-life / Vd/F: po; for Tmax: read-out: tmax, Median (range); for change of median tmax with rucaparib: with vs without rucaparib
Excerpt: This was a 2-part, phase 1, open-label, 2-arm DDI study in patients with advanced solid tumors. In Part 1 of the study, patients were screened for eligibility from day − 28 to − 2 and visited the study site from day − 1 to 23 (Fig. 1). […] To check steady-state plasma concentrations for rucaparib, a blood sample was collected prior to the dosing of rucaparib on days 5, 9, 11, 15, and 19–23.
Other PK parameters, calculated for the probe drugs, included half-life (t1/2), tmax, apparent total clearance of drug after oral administration (CL/F), and apparent volume of distribution during terminal phase (VZ/F). The PK parameter calculated for rucaparib at steady state was trough plasma concentration (Cmin). PK parameters were calculated by noncompartmental analysis using Phoenix WinNonlin, version 8.1 (Certara, Princeton, NJ).
Details are provided in Online Resource 1.
The LC consisted of a Gemini NX C18 column (2 x 50 mm, 3 μm, Phenomenex, Torrance, CA) and was eluted with a gradient consisting of 0.1% acetic acid in water as mobile phase A and with 100% acetonitrile as mobile phase B at an initial flow rate of 0.5 mL/min at room temperature. The MS/MS consisted of an AB SCIEX API5000 system and was operated with Analyst version 1.6.2 in TurboIonSpray and positive ionization mode. […] The concentration range for quantitation was 0.1–100 ng/mL.
Separation between potential metabolites and interfering endogenous compounds was achieved by ultra-high performance liquid chromatography with a CSH C18 column at 40°C and gradient elution using 0.1% formic acid in water as mobile phase A and acetonitrile as mobile phase B, operating at an initial flow rate of 0.800 mL/min. A triple quadrupole mass spectrometer (Triple Quad 6500) equipped with a turbo ion spray source was used for detection in positive ion mode.

[2] = DDI analysis: geometric mean ratio of probe drug PK with versus without rucaparib; assay type: in vivo, human; conditions: Arm B; steady-state rucaparib
Excerpt: The DDI analysis population included patients who completed the DDI assessment per protocol and had sufficient PK data to calculate Cmax and AUC of the probe drug with and without rucaparib. […] With the assumption that intrapatient PK variability would be 35% for the probe drugs, a total enrollment of 32 patients was planned for this study: 16 for Arm A and 16 for Arm B. […] The primary PK parameters were natural log-transformed before assessment with a paired t test.

[3] = plasma, 600 mg, with rucaparib 600 mg BID (day 19), single oral dose, plasma, read-out: AUC0–inf, GM (%CV)
[4] = plasma, 600 mg, with rucaparib 600 mg BID (day 19), single oral dose, plasma, read-out: AUC0–inf, Mean (SD)
[5] = plasma, 600 mg, with rucaparib 600 mg BID (day 19), single oral dose, plasma, read-out: AUC0–inf, Median (range)
[6] = plasma, 600 mg, with rucaparib 600 mg BID (day 19), single oral dose, plasma, read-out: AUC0–last, GM (%CV)
[7] = plasma, 600 mg, with rucaparib 600 mg BID (day 19), single oral dose, plasma, read-out: AUC0–last, Mean (SD)
[8] = plasma, 600 mg, with rucaparib 600 mg BID (day 19), single oral dose, plasma, read-out: AUC0–last, Median (range)
[9] = plasma, 600 mg, with rucaparib 600 mg BID (day 19), single oral dose, plasma, read-out: Cmax, GM (%CV)
[10] = plasma, 600 mg, with rucaparib 600 mg BID (day 19), single oral dose, plasma, read-out: Cmax, Median (range)
[11] = plasma, 600 mg, with rucaparib 600 mg BID (day 19), single oral dose, plasma, read-out: t1/2, GM (%CV) (converted)
[12] = plasma, 600 mg, with rucaparib 600 mg BID (day 19), single oral dose, plasma, read-out: t1/2, Mean (SD) (converted)
[13] = plasma, 600 mg, with rucaparib 600 mg BID (day 19), single oral dose, plasma, read-out: t1/2, Median (range) (converted)
[14] = plasma, 600 mg, with rucaparib 600 mg BID (day 19), single oral dose, read-out: VZ/F, GM (%CV)
[15] = plasma, 600 mg, with rucaparib 600 mg BID (day 19), single oral dose, read-out: VZ/F, Mean (SD)
[16] = plasma, 600 mg, with rucaparib 600 mg BID (day 19), single oral dose, read-out: VZ/F, Median (range)
[17] = plasma, without rucaparib (day 1), single oral dose, plasma, PK analysis population, read-out: Cmax, Mean (SD)
[18] = plasma, without rucaparib (day 1), single oral dose, plasma, read-out: AUC0–inf, GM (%CV)
[19] = plasma, without rucaparib (day 1), single oral dose, plasma, read-out: AUC0–inf, Mean (SD)
[20] = plasma, without rucaparib (day 1), single oral dose, plasma, read-out: AUC0–inf, Median (range)
[21] = plasma, without rucaparib (day 1), single oral dose, plasma, read-out: AUC0–last, Mean (SD)
[22] = plasma, without rucaparib (day 1), single oral dose, plasma, read-out: AUC0–last, Median (range)
[23] = plasma, without rucaparib (day 1), single oral dose, plasma, read-out: Cmax, GM (%CV)
[24] = plasma, without rucaparib (day 1), single oral dose, plasma, read-out: Cmax, Median (range)
[25] = plasma, without rucaparib (day 1), single oral dose, plasma, read-out: t1/2, GM (%CV) (converted)
[26] = plasma, without rucaparib (day 1), single oral dose, plasma, read-out: t1/2, Mean (SD) (converted)
[27] = plasma, without rucaparib (day 1), single oral dose, plasma, read-out: t1/2, Median (range) (converted)
[28] = plasma, without rucaparib (day 1), single oral dose, read-out: VZ/F, GM (%CV)
[29] = plasma, without rucaparib (day 1), single oral dose, read-out: VZ/F, Mean (SD)
[30] = plasma, without rucaparib (day 1), single oral dose, read-out: VZ/F, Median (range)
[31] = without rucaparib (day 1), single oral dose, plasma
[32] = with rucaparib 600 mg BID (day 19), single oral dose
[33] = without rucaparib (day 1), single oral dose

Compound | AUC(0-inf) [1, 3] [ng·h/mL] | AUC(0-inf) [1, 4] [ng·h/mL] | AUC(0-inf) [1, 5] [ng·h/mL] | AUC(0-t) [1, 6] [ng·h/mL] | AUC(0-t) [1, 7] [ng·h/mL] | AUC(0-t) [1, 8] [ng·h/mL] | Cmax [1, 9] [ng/mL] | Cmax [1, 10] [ng/mL] | half-life [1, 11] [h] | half-life [1, 12] [h] | half-life [1, 13] [h] | Vd/F [1, 14] [L] | Vd/F [1, 15] [L] | Vd/F [1, 16] [L] | Cmax [1, 17] [ng/mL] | AUC(0-inf) [1, 18] [ng·h/mL] | AUC(0-inf) [1, 19] [ng·h/mL] | AUC(0-inf) [1, 20] [ng·h/mL] | AUC(0-t) [1, 21] [ng·h/mL] | AUC(0-t) [1, 22] [ng·h/mL] | also measured
C#C[C@]1(O)CC[C@H]2[C@@H]3CCc4cc(O)ccc4[C@H]3CC[C@@]21C [ethinylestradiol] | 1.41 | 1.49 | 1.37 | 1.15 | 1.24 | 1.18 | 0.0784 | 0.0756 | 24.8 | 30 | 27.1 | 653 | 684 | 620 | 0.0792 | 0.962 | 0.994 | 1 | 0.804 | 0.775 | detected in human plasma up to (postdose) ([1]; with rucaparib): ≤ 72 h; detected in human plasma up to (postdose) ([1]; without rucaparib): up to 48 h; Cmax [1, 23]: 0.0732 ng/mL; Cmax [1, 24]: 0.0734 ng/mL; half-life [1, 25]: 15.9 h; half-life [1, 26]: 17 h; half-life [1, 27]: 18.1 h; Vd/F [1, 28]: 772 L; Vd/F [1, 29]: 792 L; Vd/F [1, 30]: 772 L; Tmax [1, 31]: 1 h; Cmax, Mean (SD) ([1]; with rucaparib 600 mg BID (day 19), single oral dose, plasma, PK analysis population): 0.0893 (0.0443) ng/mL; change of median tmax with rucaparib [1]: 0.5 h; AUC increase with rucaparib [2]: approximately 1.4 fold; Cmax increase with rucaparib [2]: < 1.25 fold
C#C[C@]1(O)CC[C@H]2[C@@H]3CCC4=CC(=O)CC[C@@H]4[C@H]3CC[C@@]21CC [levonorgestrel] | 102 | 109 | 87.3 | 77.5 | 86 | 80.4 | 3.43 | 3.48 | 46.6 | 50 | 43.6 | 77.6 | 82.8 | 85.6 | 3.32 | 64 | 72.7 | 55.4 | 59.7 | 45.3 | Cmax ([1]; plasma, 600 mg, with rucaparib 600 mg BID (day 19), single oral dose, plasma, PK analysis population, read-out: Cmax, Mean (SD)): 3.77 ng/mL; AUC(0-t) ([1]; plasma, without rucaparib (day 1), single oral dose, plasma, read-out: AUC0–last, GM (%CV)): 52.9 ng·h/mL; Cmax [1, 23]: 3.17 ng/mL; Cmax [1, 24]: 3.29 ng/mL; half-life [1, 25]: 38.5 h; half-life [1, 26]: 41.1 h; half-life [1, 27]: 37.1 h; Vd/F [1, 28]: 103 L; Vd/F [1, 29]: 113 L; Vd/F [1, 30]: 114 L; Tmax ([1]; with rucaparib 600 mg BID (day 19), single oral dose, plasma): 1.5 h; Tmax [1, 31]: 1.51 h; CL/F, Mean (SD) [1, 32]: 1.57 (0.531) L/h; CL/F, Median (range) [1, 32]: 1.72 (0.701–2.39) L/h; change of median tmax with rucaparib [1]: remained the same; CL/F, Mean (SD) [1, 33]: 2.57 (1.01) L/h; CL/F, Median (range) [1, 33]: 2.71 (0.891–3.84) L/h; AUC increase with rucaparib [2]: ~1.6 fold; Cmax increase with rucaparib [2]: < 1.25 fold
